Data on ten compounds can be found in patent US4963553A, “4-[(substituted) alkylcarbonyl]-4,5-dihydro- and -4,5,6,7-tetrahydro-7-[(substituted)phenyl]pyrazolo[1,5-a]pyrimidines” (American Cyanamid Co., priority 1988, dated 1990).

This assay concerns Spontaneously Hypertensive Rats. Kind of assay: Hypotensive activity: mean arterial blood pressure in spontaneously hypertensive rats. Format: in vivo, rat (Okamoto strain, male). To be noted: SHR, gavage, 100 mg/kg or less, two doses 24 h apart, measured at 28 hours, average MABP of rats used 160±1.5 mm. As to the method: The novel compounds of the invention are active hypotensive agents at nontoxic doses when administered to mammals. These compounds were tested for hypotensive activity by the method of P. S. Chan and D. W. Poorvin, Clinical and Experimental Hypertension, (6), 817-830 (1979). Male, 16 week old, spontaneously hypertensive rats of the Okamoto strain (Taconic Farms, Germantown, N.Y.) having an average means arterial blood pressure of 160±1.5 mm of mercury are used in the test. A rat is dosed by gavage with a test compound, suspended in 2% pre-boiled starch at a concentration of 50 mg/ml, at a dose of 100 mg/kg of body weight or less, with 0.9% sodium chloride loading at a dose of 25 ml/kg of body weight. A second identical dose of the test compound, without sodium chloride loading is given 24 hours later. At 28 hours after the initial dose the mean arterial blood pressure is measured by the method of Chan and Poorvin vide supra.

Counter-ions that a name gives are not always drawn.

Consider `N#Cc1cnn2c1N(C(=O)CN1CCN(c3ccccc3)CC1)CC=C2c1cccc(C(F)(F)F)c1` [Example 25, 4,5-Dihydro-4-[(4-phenyl-1-piperazinyl)acetyl]-7-[3-(trifluoromethyl)phenyl]pyrazolo[1,5-a]pyrimidine-3-carbonitrile], for which the “MABP/mmHg (mean arterial blood pressure)” value was 137 mmHg.
For the compound `N#Cc1cnn2c1N(C(=O)CN1CCN(c3cccc(Cl)c3)CC1)CC=C2c1cccc(C(F)(F)F)c1` [Example 26, 4-[[4-(3-Chlorophenyl)-1-piperazinyl]acetyl]-4,5-dihydro-7-[3-(trifluoromethyl)phenyl]pyrazolo[1,5-a]pyrimidine-3-carbonitrile], the “MABP/mmHg (mean arterial blood pressure)” value worked out at 124 mmHg.
With `N#Cc1cnn2c1N(C(=O)CN1CCN(c3ncccn3)CC1)CC=C2c1cccc(C(F)(F)F)c1` [Example 28, 4,5-Dihydro-4-[[4-(2-pyrimidinyl)-1-piperazinyl]acetyl]-7-[3-(trifluoromethyl)phenyl]pyrazolo[1,5-a]pyrimidine-3-carbonitrile], the “MABP/mmHg (mean arterial blood pressure)” value worked out at 127 mmHg.
Same read-out and setting: under `N#Cc1cnn2c1N(C(=O)CN1CCN(c3ccc(F)cc3)CC1)CC=C2c1cccc(C(F)(F)F)c1` [Example 31, 4-[[4-(4-Fluorophenyl)-1-piperazinyl]acetyl]-4,5-dihydro-7-[3-(trifluoromethyl)phenyl]pyrazolo[1,5-a]pyrimidine-3-carbonitrile] stands 130 mmHg; under `N#Cc1cnn2c1N(C(=O)CCN1CCN(Cc3ccc(Cl)cc3)CC1)CC=C2c1cccc(C(F)(F)F)c1` [Example 35, 4-[3-[4-[(Chlorophenyl)methyl]-1-piperazinyl]-1-oxopropyl]-4,5-dihydro-7-[3-(trifluoromethyl)phenyl]pyrazolo[1,5-a]pyrimidine-3-carbonitrile], 138 mmHg; under `N#Cc1cnn2c1N(C(=O)CN1CCN(C(c3ccc(F)cc3)c3ccc(F)cc3)CC1)CC=C2c1cccc(C(F)(F)F)c1` [Example 40, 4-[[4-[Bis(4-fluorophenyl)methyl]-1-piperazinyl]acetyl]-4,5-dihydro-7-[3-(trifluoromethyl)phenyl]pyrazolo[1,5-a]pyrimidine-3-carbonitrile], 121 mmHg.
The same measure, in the same setting: under `C=CCN1CCN(CC(=O)N2CC=C(c3cccc(C(F)(F)F)c3)n3ncc(C#N)c32)CC1` [Example 47, 4,5-Dihydro-4-[[4-(2-propenyl)-1-piperazinyl]acetyl]-7-[3-(trifluoromethyl)phenyl]pyrazolo[1,5-a]pyrimidine-3-carbonitrile] stands 139 mmHg; under `CC(C)N1CCN(CC(=O)N2CC=C(c3cccc(C(F)(F)F)c3)n3ncc(C#N)c32)CC1` [Example 51, 4,5-Dihydro-4-[[4-(1-methylethyl)-1-piperazinyl]acetyl]-7-[3-(trifluoromethyl)phenyl]pyrazolo[1,5-a]pyrimidine-3-carbonitrile], 139 mmHg.
`N#Cc1cnn2c1N(C(=O)CN1CCN(C3CCC3)CC1)CC=C2c1cccc(C(F)(F)F)c1` [Example 52, 4-[(4-Cyclobutyl-1-piperazinyl)acetyl]-4,5-dihydro-7-[3-(trifluoromethyl)phenyl)pyrazolo[1,5-a]pyrimidine-3-carbonitrile]: the “MABP/mmHg (mean arterial blood pressure)” value is reported as 124 mmHg.
For `N#Cc1cnn2c1N(C(=O)CN1CCN(Cc3ccccc3)CC1)CC=C2c1cccc(C(F)(F)F)c1` [Example 78, 4,5-Dihydro-4-[[4-(phenylmethyl)-1-piperazinyl]acetyl]-7-[3-(trifluoromethyl)phenyl]pyroazolo[1,5-a]pyrimidine-3-carbonitrile, dihydrochloride], the “MABP/mmHg (mean arterial blood pressure)” value (dihydrochloride, 100 mg/kg) was determined as 137 mmHg.
